Assay results taken from US20030220524A1, “Sulfur containing compounds” (priority 2000, published 2003).

Tests used:
Assay in all cases: TUNEL, flow cytometry
Type in all cases: cell-based, human
Details in all cases: 48 h
NB-4 leukemic cell line = test system: NB-4 leukemic cell line
Experimental: (§1) Adherent cell lines were plated at 35×10^4 cells/60 cm^2 dish the day before exposure to compound. Suspension cells were seeded at 25×10^4 cells/mL in a 6 well dish (Falcon) the day of exposure to compound. Mononucleated, T-cell depleted normal bone marrow cells were seeded at 50×10^4 cells/mL in a 6 well dish the day of exposure to compound. Cells were exposed to solvent control or approximate MTT50 and MTT30 concentrations of the compound. After 48 h of exposure to the compound, cells were harvested and fixed with a final concentration of 4% formaldehyde. Fixed cells were stored at −20° C. in 70% ethanol for no more than 5 days. Approximately 10^5 cells were pelleted and labeled with 0.02 mM Biotin-dUTP and 12.5 U TdT enzyme in a 1× reaction buffer (200 mM potassium cacodylate, 25 mM Tris-HCl, 25 μg/mL bovine serum albumin, pH 6.6), 2.5 mM CoCl2 and 0.01 mM dTTP (Roche Molecular Biochemicals, Laval, QC, Canada) for 45 min at 37° C. Samples were washed and incubated in 200 μL of 1:1000 fluorescein isothiocyanate (FITC)-conjugated avidin (Sigma) in 4×SSC, 5% skim milk powder and 0.05% Tween-20 (Sigma). Following 1 h of mixing at room temperature, the samples were washed and resuspended in 500 μL of D-PBS containing 2.5 μg/mL DNase-free RNase (Boehringer Mannheim) and 10 μg/mL PI. Following a 30 min incubation at room temperature, cells were analyzed using a XL-MCL flow cytometer (Coulter Corporation, Miami, Fla.) and a FACScalibar cytometer (Becton Dickinson, San Jose, Calif.). Profiles shown are representative of one experiment.
as §1, with “? s” for “Cells”, “appr ? nate” for “approximate”, “of” for “of the”, “Pl.” for “PI.”

[1] = test system: WI38 non-transformed diploid fibroblasts
Experimental: as §1
as §1, with “? s” for “Cells”, “appr ? nate” for “approximate”, “of” for “of the”, “Pl.” for “PI.”

B1 leukemic cell line = test system: B1 leukemic cell line
Experimental: as §1
as §1, with “? s” for “Cells”, “appr ? nate” for “approximate”, “of” for “of the”, “Pl.” for “PI.”

G2 leukemic cell line = test system: G2 leukemic cell line
Experimental: as §1
as §1, with “? s” for “Cells”, “appr ? nate” for “approximate”, “of” for “of the”, “Pl.” for “PI.”

| Structure (SMILES) | % TUNEL +ve (NB-4 leukemic cell line; dose 50 uM) [%] | % TUNEL +ve (NB-4 leukemic cell line; dose 100 uM) [%] | % TUNEL +ve ([1]; dose 50 uM) [%] | % TUNEL +ve ([1]; dose 100 uM) [%] | % TUNEL +ve (B1 leukemic cell line; dose 50 uM) [%] | % TUNEL +ve (B1 leukemic cell line; dose 100 uM) [%] | % TUNEL +ve (G2 leukemic cell line; dose 50 uM) [%] | % TUNEL +ve (G2 leukemic cell line; dose 100 uM) [%] | % TUNEL +ve ([1]; dose 25 uM) [%] | % TUNEL +ve (B1 leukemic cell line; dose 25 uM) [%] | % TUNEL +ve (G2 leukemic cell line; dose 25 uM) [%] |
| --- | --- | --- | --- | --- | --- | --- | --- | --- | --- | --- | --- |
| CSCSSC [Compound N, 2,3,5-trithiahexane] | 17 | 19 | 0.7 | 2 | 49 | 44 | 18 | 19 | – | – | – |
| CSSCC(=O)c1ccccc1 [Compound P, phenacyl methyl disulphide] | 24 | 0.2 | 0.70 | 1.7 | 39 | 67 | 17 | 53 | – | – | – |
| CCC(=O)OCSSc1ccccc1 [Compound Q, 1-phenyl-1,2-dithiapropyl propionate] | 16 | – | 0.2 | – | 78 | – | 58 | – | 4 | 32 | 23 |
